Measurements: US12233161B1, “Lipids and lipid nanoparticle formulations” (LONGUIDE BIOPHARMA CORPORATION, priority 2024, dated 2025)
Values belong to the compound of their own block, whether it stands above or below them.

Assays:
[1] = Potential characterization of nucleic acid lipid nanoparticle preparations; assay type: physicochemical
Method in brief: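 Nanoparticles (about 0.04 mg/mL mRNA) were diluted in ultrapure water for Malvern ZEN3700 measurement: 20 μL into 780 μL for potential alone, or 27.5 μL into 200 μL for DLS particle size followed by addition of 600 μL water for potential.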

[2] = Particle size and PDI of nucleic acid lipid nanoparticle preparations by dynamic light scattering; assay type: physicochemical
Method in brief: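 Size read by DLS after diluting the LNP preparation (approx. 0.04 mg/mL mRNA) in ultrapure water with gentle pipette mixing. The same sample, recovered and diluted further with water, was then used for zeta potential measurement.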

[3] = system: mice; assay: In vivo delivery of FLuc-circ-RNA lipid nanoparticles in mice; settings: Fluc-circ-RNA LNP, IV
Method: Lipid nanoparticles loaded with nucleic acid drugs were prepared according to step 2, replacing FLuc-mRNA with FLuc-circ-RNA (Hongene Biotech Corporation, Shanghai). After formulation, the nanoparticles were administered via intramuscular injection (into the quadriceps femoris muscle of mice), intravenous injection (into the tail vein of mice), intraperitoneal injection, or subcutaneous injection (subcutaneously on the back). Approximately 75 μL was injected per mouse, with a total of 3 mice per group. In vivo imaging (PerkinElmer, IVIS Lumina III) was performed after a certain period of time. Ten to fifteen minutes before imaging, 200 μL of a 15 mg/mL D-Luciferin working solution was injected intraperitoneally, followed by imaging analysis using the in vivo imaging system.

[4] = system: mice; assay: In vivo delivery of FLuc-mRNA lipid nanoparticles in mice, in vivo imaging (IVIS)
Method in brief: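 Mice (n=3) received about 75 μL FLuc-mRNA LNP per mouse intramuscularly (rectus femoris), intravenously (tail vein), intraperitoneally or subcutaneously (back). After injection, D-luciferin (200 μL, 15 mg/mL) was given i.p. 10-15 min before IVIS imaging.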

[5] = Fluc-circ-RNA LNP, preparation given IV
[6] = DMG-PEG2000:DSPC:Chol:Lipid 1.00:11.50:22.50:65.00, N/P 65, mRNA LNP
[7] = DMG-PEG2000:DSPC:Chol:Lipid 1.00:16.00:48.00:35.00, N/P 18, mRNA LNP
[8] = DMG-PEG2000:DSPC:Chol:Lipid 1.00:16.00:48.00:35.00, N/P 30, mRNA LNP
[9] = DMG-PEG2000:DSPC:Chol:Lipid 1.47:11.16:38.97:48.40, N/P 30, mRNA LNP
[10] = DMG-PEG2000:DSPC:Chol:Lipid 1.00:11.50:22.50:65.00, N/P 65, IV, liver
[11] = DMG-PEG2000:DSPC:Chol:Lipid 1.00:11.50:22.50:65.00, N/P 65, IV, lung
[12] = DMG-PEG2000:DSPC:Chol:Lipid 1.00:11.50:22.50:65.00, N/P 65, IV, spleen
[13] = DMG-PEG2000:DSPC:Chol:Lipid 1.00:16.00:48.00:35.00, N/P 18, IV, liver
[14] = DMG-PEG2000:DSPC:Chol:Lipid 1.00:16.00:48.00:35.00, N/P 18, IV, lung
[15] = DMG-PEG2000:DSPC:Chol:Lipid 1.00:16.00:48.00:35.00, N/P 18, IV, spleen
[16] = DMG-PEG2000:DSPC:Chol:Lipid 1.00:16.00:48.00:35.00, N/P 30, IV, liver
[17] = DMG-PEG2000:DSPC:Chol:Lipid 1.00:16.00:48.00:35.00, N/P 30, IV, lung
[18] = DMG-PEG2000:DSPC:Chol:Lipid 1.00:16.00:48.00:35.00, N/P 30, IV, spleen
[19] = DMG-PEG2000:DSPC:Chol:compound 1.40:11.15:38.95:48.50, N/P 30
[20] = DMG-PEG2000:DSPC:Chol:compound 1.00:10.00:33.00:56.00, N/P 42
[21] = DMG-PEG2000:DSPC:Chol:compound 2.50:11.50:56.00:30.00, N/P 42

Zeta potential (mV) [1, 5]: 15.53 mV
PDI [2, 6]: 0.22 ± 0.01
Particle size [2, 6]: 145.43 ± 1.37 nm
PDI [2, 7]: 0.16 ± 0.03
Particle size [2, 7]: 135.90 ± 1.28 nm
PDI [2, 8]: 0.18 ± 0.02
Particle size [2, 8]: 137.37 ± 1.50 nm
PDI [2, 9]: 0.24 ± 0.02
Particle size [2, 9]: 93.36 ± 1.24 nm
PDI [2, 5]: 0.16
Particle size (nm) [2, 5]: 128.4 nm
Structure (SMILES): CCCCCCCCCCCCOC(=O)C(O)CN(CCN(C)CCN(CC(O)C(=O)OCCCCCCCCCCCC)CC(O)C(=O)OCCCCCCCCCCCC)CC(O)C(=O)OCCCCCCCCCCCC (centres unmarked) [Compound L0262]
% of organ targeting ([3]; liver): 3.78%
% of organ targeting ([3]; lung): 8.14%
% of organ targeting ([3]; spleen): 88.08%
IVIS ([4]; DMG-PEG2000:DSPC:Chol:Lipid 1.00:11.50:22.50:65.00, N/P 65, IV, body): 2.54 × 10^7
% of organ targeting [4, 10]: 1.47%
IVIS [4, 10]: 1.32 × 10^6
% of organ targeting [4, 11]: 85.62%
IVIS [4, 11]: 7.69 × 10^7
% of organ targeting [4, 12]: 12.91%
IVIS [4, 12]: 1.16 × 10^7
IVIS ([4]; DMG-PEG2000:DSPC:Chol:Lipid 1.00:16.00:48.00:35.00, N/P 18, IV, body): 1.06 × 10^8
% of organ targeting [4, 13]: 5.38%
IVIS [4, 13]: 5.61 × 10^6
% of organ targeting [4, 14]: 1.85%
IVIS [4, 14]: 1.93 × 10^6
% of organ targeting [4, 15]: 92.76%
IVIS [4, 15]: 9.67 × 10^7
IVIS ([4]; DMG-PEG2000:DSPC:Chol:Lipid 1.00:16.00:48.00:35.00, N/P 30, IV, body): 2.91 × 10^7
% of organ targeting [4, 16]: 15.31%
IVIS [4, 16]: 3.92 × 10^6
% of organ targeting [4, 17]: 11.64%
IVIS [4, 17]: 2.98 × 10^6
% of organ targeting [4, 18]: 73.05%
IVIS [4, 18]: 1.87 × 10^7
IVIS ([4]; DMG-PEG2000:DSPC:Chol:Lipid 1.47:11.16:38.97:48.40, N/P 30, IM, whole body scan): 2.83 × 10^5
tissue-targeting specificity (lung vs spleen depending on molar percentage of compound) ([4]; certain formulations, Table 2): strong tissue-targeting specificity

Zeta potential (mV) [1, 19]: 13.57 mV
Zeta potential (mV) [1, 5]: 9.98 mV
PDI [2, 20]: 0.17
Particle size (nm) [2, 20]: 75.31 nm
PDI [2, 19]: 0.18
Particle size (nm) [2, 19]: 111.20 nm
PDI [2, 21]: 0.17
Particle size (nm) [2, 21]: 82.60 nm
PDI [2, 5]: 0.2
Particle size (nm) [2, 5]: 115.97 nm
Structure (SMILES): CCCCCCCCCCOC(=O)C(O)CN(CCCN(C)CCCN(CC(O)C(=O)OCCCCCCCCCC)CC(O)C(=O)OCCCCCCCCCC)CC(O)C(=O)OCCCCCCCCCC (centres unmarked) [Compound L0313]
% of organ targeting ([3]; liver): 3.39%
% of organ targeting ([3]; lung): 20.55%
% of organ targeting ([3]; spleen): 76.06%
IVIS ([4]; IM, DMG-PEG2000:DSPC:Chol:compound 1.40:11.15:38.95:48.50, N/P 30, Fluc-mRNA): 7.43E+05
IVIS ([4]; IV, body, DMG-PEG2000:DSPC:Chol:compound 1.00:10.00:33.00:56.00, N/P 42, Fluc-mRNA): 5.88E+07
IVIS ([4]; IV, body, DMG-PEG2000:DSPC:Chol:compound 2.50:11.50:56.00:30.00, N/P 42, Fluc-mRNA): 5.20E+07
% of organ targeting ([4]; IV, liver, DMG-PEG2000:DSPC:Chol:compound 1.00:10.00:33.00:56.00, N/P 42): 2.04%
IVIS ([4]; IV, liver, DMG-PEG2000:DSPC:Chol:compound 1.00:10.00:33.00:56.00, N/P 42, Fluc-mRNA): 3.78E+06
% of organ targeting ([4]; IV, liver, DMG-PEG2000:DSPC:Chol:compound 2.50:11.50:56.00:30.00, N/P 42): 6.90%
IVIS ([4]; IV, liver, DMG-PEG2000:DSPC:Chol:compound 2.50:11.50:56.00:30.00, N/P 42, Fluc-mRNA): 8.68E+06
% of organ targeting ([4]; IV, lung, DMG-PEG2000:DSPC:Chol:compound 1.00:10.00:33.00:56.00, N/P 42): 62.84%
IVIS ([4]; IV, lung, DMG-PEG2000:DSPC:Chol:compound 1.00:10.00:33.00:56.00, N/P 42, Fluc-mRNA): 1.17E+08
% of organ targeting ([4]; IV, lung, DMG-PEG2000:DSPC:Chol:compound 2.50:11.50:56.00:30.00, N/P 42): 1.10%
IVIS ([4]; IV, lung, DMG-PEG2000:DSPC:Chol:compound 2.50:11.50:56.00:30.00, N/P 42, Fluc-mRNA): 1.38E+06
% of organ targeting ([4]; IV, spleen, DMG-PEG2000:DSPC:Chol:compound 1.00:10.00:33.00:56.00, N/P 42): 35.12%
IVIS ([4]; IV, spleen, DMG-PEG2000:DSPC:Chol:compound 1.00:10.00:33.00:56.00, N/P 42, Fluc-mRNA): 6.52E+07
% of organ targeting ([4]; IV, spleen, DMG-PEG2000:DSPC:Chol:compound 2.50:11.50:56.00:30.00, N/P 42): 92.00%
IVIS ([4]; IV, spleen, DMG-PEG2000:DSPC:Chol:compound 2.50:11.50:56.00:30.00, N/P 42, Fluc-mRNA): 1.16E+08
